Measured values from article PMC11724075, “Small-molecule-induced ERBB4 activation to treat heart failure” (Nature Communications, 2025).
Where “and” joins values, the source holds several entries; their conditions need not be identical. Identical values can stand only once.

Columns and labels:
ERBB4/ERBB4 = target: T1, ERBB4/ERBB4 (Homo sapiens, UniProt Q15303); test: PathHunter U2OS ERBB4/ERBB4 dimerization assay, 96-well dose-response; assay type: cell-based; settings: for ERBB4/ERBB4 dimerization signal: relative to signal with 0.1 µM NRG1, single biological replicates; for EC50: Fig. 1 panels b, f-l
T1 construct: host or cells: U2OS (osteosarcoma cells), PathHunter engineered line
T1 sequence (Q15303 26-1308): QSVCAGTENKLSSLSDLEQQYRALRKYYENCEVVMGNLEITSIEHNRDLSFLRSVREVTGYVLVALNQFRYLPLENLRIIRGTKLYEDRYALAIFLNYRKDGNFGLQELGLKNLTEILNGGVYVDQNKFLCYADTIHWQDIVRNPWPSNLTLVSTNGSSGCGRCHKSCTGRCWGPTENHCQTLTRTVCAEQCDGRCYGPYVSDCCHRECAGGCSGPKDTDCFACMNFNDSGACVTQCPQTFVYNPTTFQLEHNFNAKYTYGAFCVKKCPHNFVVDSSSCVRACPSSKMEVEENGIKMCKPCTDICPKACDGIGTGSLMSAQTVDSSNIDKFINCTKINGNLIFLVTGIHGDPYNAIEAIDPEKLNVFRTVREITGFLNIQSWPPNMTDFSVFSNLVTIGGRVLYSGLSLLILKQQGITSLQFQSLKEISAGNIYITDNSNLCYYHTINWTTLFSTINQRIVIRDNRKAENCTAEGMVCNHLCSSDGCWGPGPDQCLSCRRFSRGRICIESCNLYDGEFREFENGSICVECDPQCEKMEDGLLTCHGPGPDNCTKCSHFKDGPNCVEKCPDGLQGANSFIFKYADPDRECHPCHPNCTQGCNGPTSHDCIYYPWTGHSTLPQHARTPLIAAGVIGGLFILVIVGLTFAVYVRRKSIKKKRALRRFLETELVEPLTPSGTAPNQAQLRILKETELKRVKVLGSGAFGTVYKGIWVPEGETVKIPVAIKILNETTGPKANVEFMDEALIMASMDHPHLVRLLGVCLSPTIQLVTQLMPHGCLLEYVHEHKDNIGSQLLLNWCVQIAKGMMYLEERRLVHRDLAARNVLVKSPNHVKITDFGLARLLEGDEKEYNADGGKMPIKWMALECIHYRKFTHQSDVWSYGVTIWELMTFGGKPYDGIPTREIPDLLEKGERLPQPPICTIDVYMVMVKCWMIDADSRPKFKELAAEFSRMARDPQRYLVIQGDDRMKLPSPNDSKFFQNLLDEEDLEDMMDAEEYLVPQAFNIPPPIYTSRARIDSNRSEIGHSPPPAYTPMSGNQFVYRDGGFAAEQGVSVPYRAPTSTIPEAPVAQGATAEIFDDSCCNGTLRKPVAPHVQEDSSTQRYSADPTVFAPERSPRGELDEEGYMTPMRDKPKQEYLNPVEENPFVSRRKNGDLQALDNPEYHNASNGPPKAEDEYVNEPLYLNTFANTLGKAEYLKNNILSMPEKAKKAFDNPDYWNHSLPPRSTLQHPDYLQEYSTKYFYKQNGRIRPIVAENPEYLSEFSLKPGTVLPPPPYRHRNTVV
T1 sequence (Q15303 26-1308): as above
Protocol: PathHunter U2OS ERBB4/ERBB4 (osteosarcoma cells; Eurofins, 93-0961C3), U2OS ERBB2/ERBB4 (osteosarcoma cells; Eurofins, 493-0960C3), ERBB2/ERBB3 (osteosarcoma cells; Eurofins, 93-1042C3) and ERBB1/ERBB1 (osteosarcoma cells; Eurofins, 93-0989C3) dimerization cell lines were cultured according to the manufacturer’s instructions. Briefly, cells were cultured in Cell Culture Reagent 103 (Eurofins, 92-3103 G) supplemented with 250 µg/mL Hygromycin B (Eurofins, 92-0029) and 500 µg/mL G418 (Eurofins, 92-0030), and were maintained at 37 °C in humidified atmosphere of 5% CO2. HCFs (Innoprot, P10454) were cultured in fibroblast medium (Innoprot, P60108) supplemented with 10% (v/v) fetal bovine serum (FBS, Innoprot), 10% (v/v) fibroblast growth supplement (Innoprot), and 1% (v/v) penicillin/streptomycin solution (Innoprot). iAMs[33] (kindly provided by LUMC) were cultured in Advanced DMEM F-12 (Thermo Fisher Scientific, 12634028) supplemented with 2% (v/v) heat-inactivated FBS (Thermo Fisher Scientific, 10270106), 1% (v/v) penicillin/streptomycin (10,000 units/mL and 10 mg/mL respectively, Thermo Fisher Scientific, 15140122), 1× GlutaMAX (Thermo Fisher Scientific, 35050061), and 100 ng/mL doxycycline (Tocris, 4090) for proliferation. To induce differentiation, iAMs were transferred to medium without doxycycline.
U2OS ERBB4/ERBB4 dimerization cells were seeded at a density of 5 × 10^4 cells/well in 100 µL Cell Plating 0 Reagent, in white 96-well plates (PerkinElmer, 6005680) and incubated for 24 h at 37 °C, 5% CO2. […] Next, 110 µL PathHunter Flash Detection Reagent was added to each well and incubated at RT for 1 h after which the luminescence signal was measured using the Luminoskan Ascent (Thermo Fisher Scientific). […] The same experimental set-up was used for the U2OS ERBB2/ERBB4, U2OS ERBB2/ERBB3 and U2OS ERBB1/ERBB1 dimerization cell lines.
Category Parameter Description
Assay Type of assay PathHunter Dimerization assays provide a robust, highly sensitive and easy-to-use cell-based functional assay to study various protein activities in a cell. The assay s use
Enzyme Fragment Complementation technology, where the b-galactosidase (b-gal) enzyme is split into two fragments, ProLink and Enzyme Acceptor. Independently these fragments have no b-gal activity. However, when forced to complement through protein-protein interactions, they form an active b-gal enzyme. The PathHunter Dimerization assay detects ligand induced dimerization of two subunits of a receptor-dimer pair. The cells have been engineered to co-express one receptor subunit (ERBB4) fused to Enzyme
Donor, and a second dimer partner (ERBB4) fused to Enzyme Acceptor. Binding of an agonist to one receptor subunit induces it to interact with its dimer partner, forcing complementation of the two enzyme […]
functional enzyme that hydrolyzes a substrate to generate a chemiluminescent signal.
Target ErbB4 receptor (RTK receptor)
Primary measurement Detection of chemiluminescent signal, induced by small-molecule ErbB4 agonists
Key reagents PathHunter Dimerization ErbB4/ErbB4 Cell
Line (93-0961C3) - PathHunter Flash
Detection Kit (03 -0247) - AssayComplete Cell
AssayComplete Cell Detachment Reagent
(92-0009) - AssayComplete Thawing Reagent
T3 (92-4103TR) - AssayComplete Freezing
Assay protocol https://www.discoverx.com/catalog/pathhun

iAMs = test: H2O2-induced cell death assay in iAMs (Toxilight), also with LY294002; settings: for total cell death of iAMs: single replicates
Protocol: Subsequently, H2O2 (100 µM; Merck, H1009) was added and the cells were incubated for 4 h at 37 °C. All wells contained DMSO at a final concentration of 0.9%. […] After incubation at RT for 5 min, luminescence was measured using the Luminoskan Ascent.

Row | SMILES | ERBB4/ERBB4 dimerization signal (ERBB4/ERBB4; 3.125e-8 M) | ERBB4/ERBB4 dimerization signal (ERBB4/ERBB4; 6.25e-8 M) | ERBB4/ERBB4 dimerization signal (ERBB4/ERBB4; 1.25e-7 M) | ERBB4/ERBB4 dimerization signal (ERBB4/ERBB4; 2.5e-7 M) | ERBB4/ERBB4 dimerization signal (ERBB4/ERBB4; 5e-7 M) | ERBB4/ERBB4 dimerization signal (ERBB4/ERBB4; 1e-6 M) | ERBB4/ERBB4 dimerization signal (ERBB4/ERBB4; 2e-6 M) | ERBB4/ERBB4 dimerization signal (ERBB4/ERBB4; 4e-6 M) | ERBB4/ERBB4 dimerization signal (ERBB4/ERBB4; 8e-6 M) | ERBB4/ERBB4 dimerization signal (ERBB4/ERBB4; 1.6e-5 M) | ERBB4/ERBB4 dimerization signal (ERBB4/ERBB4; 3.2e-5 M) | EC50 (ERBB4/ERBB4) | induction of ERBB4 dimerization (in words) (ERBB4/ERBB4) | total cell death of iAMs (iAMs; H2O2/Veh + LY294002 (20 µM)) | total cell death of iAMs (iAMs; Veh + LY294002 (20 µM), no H2O2) | effect of LY294002 pretreatment on pro-survival effect of EF-1 (in words) (iAMs; iAMs treated with H2O2)
1 | CC(C)n1c(SC(C(=O)NC2CC2)c2ccccc2)nc2sc3c(c2c1=O)CCC3 (stereo not shown) [EF-4] | 0 | -0.82 and -1.6 and 0.98 and -1.282 and -1.385 | -1.06 and 0.03 and 3.38 and -1.705 and 1.217 | 0.06 and -1.83 and 3.79 and -0.533 and -0.2429 | 0.37 and -1.62 and 3.34 and -1.138 and -0.1012 | -0.43 and -1.64 and 5.89 and 0.03433 and 4.575 | 0.21 and 0.63 and 6.37 and 2.286 and 6.859 | 2.3 and -0.27 and 8.83 and 5.465 and 8.345 | 3.99 and 2.72 and 14.5 and 12.0003 and 11.0326 | 10.7 (2×) and 28.43 and 14.396 and 16.9022 | 14.22 and 10.37 and 32.96 and 14.248 and 12.7415 | 7.9 µM |  |  |  | 
2 | CC(=O)c1ccc(NC(=O)C(C)Sc2nc3ccccc3c(=O)n2C2CCCC2)cc1 (stereo not shown) [EF-2] | 0 | 2.15 and 4.6 and 0.468 and 1.148 | 3.45 and 2.29 and 0.641 and 1.187 | 4.04 and 4.36 and 1.213 and -1.342 | 1.37 and 3.12 and 2.49 and 0.6545 | 2.5 and 5.02 and 2.238 and 2.209 | 4.33 and 4.8 and 3.759 and 4.682 | 3.95 and 4.91 and 4.578 and 5.322 | 8.72 and 7.12 and 6.167 and 6.988 | 9.4 and 10.69 and 8.539 and 7.868 | 12.78 and 12.75 and 7.517 and 9.504 | 3.3 µM |  |  |  | 
3 | CC(Sc1nc2ccccc2c(=O)n1C1CCCC1)c1nc2ccccc2n1C(F)F (stereo not shown) [EF-7] | 0 | 1.834 and 3.035 and 0.03 and -1.937 | -0.545 and 2.505 and -0.7885 and 2.028 | 4.185 and 4.81 and -0.3825 and 0.1978 | -2.369 and -1.66 and -2.1805 and 0.9417 | -1.082 and -1.615 and -1.204 and 2.348 | -0.26 and -0.926 and -0.8585 and 4.47 | 0.729 and 3.237 and 0.665 and 4.903 | 3.996 and 7.56 and 2.421 and 5.8011 | 6.204 and 12.704 and 5.9735 and 4.731 | 9.166 and 15.395 and 6.6065 and 4.169 | 4.4 µM | induced ERBB4 dimerization in a concentration-dependent manner |  |  | 
4 | O=c1cc(N2CCOCC2)oc2c(-c3ccccc3)cccc12 [LY294002, reference compound] |  |  |  |  |  |  |  |  |  |  |  |  |  | 32.812 and 23.1247 and 24.542 and 32.4283 | 4.366 and 3.706 and 3.828 and 4.745 | blocked the pro-survival effect of EF-1
